# Measured values as given in ChEMBL document CHEMBL3507680, “University of Dundee, Gates Library screen for HepG2 cell viability”.
# Experiment: Human HepG2 cell viability assay in 384 well format
# Assay type: toxicity, cell-based
# Set-up: dose 125 nL, time 70.5 hour; cytotoxicity at 70.5 h: concentration not given beside the values
# Conditions: HepG2 cells, read-out: Inhibition
row,SMILES,cytotoxicity at 70.5 h [%]
1,O=C(NCc1cccnc1)c1cn(CCc2ccccc2)nn1,14
2,CCC(C)(C)n1nnnc1C(c1cccs1)N1CCCCC1 (centres undefined),-3.15
3,CC(C)N1CCCC(c2cc(C(F)(F)F)nc3nccn23)C1 (centres undefined),-0.494
4,CN1CCc2nnc(C3CCCN3S(=O)(=O)c3ccc(F)cc3)n2CC1 (centres undefined),-3.97
5,c1cnnc(N[C@@H]2CC[C@@H]3CN(Cc4ccc5[nH]ccc5c4)C[C@@H]32)c1,2.98
6,Cc1cc(N2CCC(O)(CN(C)C(=O)CCN)C2)c2cnccc2n1 (centres undefined),-4.6
7,Cc1cc(N2CCC(O)(CN(C)C(=O)CCCN)C2)c2cnccc2n1 (centres undefined),-0.861
8,Cc1cn([C@H]2CCNC[C@]2(C)O)c(=O)[nH]c1=O,4.8
9,CCN1CCCc2cc(CN3CCc4nc(C)[nH]c(=O)c4C3)ccc21,-0.248
10,CCN1CCCc2cc(CN3CCc4c(nc(C)[nH]c4=O)C3)ccc21,-3.71
11,Cc1cc(-c2ccc(=O)n(CCNC(=O)C3CCC3)n2)c(C)o1,15.6
12,Cc1cc(-c2ccc(=O)n(CCNC(=O)C3CCCCC3)n2)c(C)o1,-1.98
13,CN(C)c1nccc(C2CN(c3cnccn3)CCO2)n1 (centres undefined),13.3
14,Cc1nc(NCCN2CCCC2=O)cc(C2CN(C)CCO2)n1 (centres undefined),1.86
15,CCc1cc(=O)[nH]c(NC2CCN(S(=O)(=O)c3ccccc3)CC2)n1,-7.53
16,Cc1ccc(-c2nc(C3CCN(C(=O)c4ccnn4C)CC3)no2)cn1,-7.4
17,O=C1CCC(c2nc(C3CCNCC3)no2)N1 (centres undefined),-6.87
18,O=C1CCC(c2nc(C3CCN(C(=O)C4CC4)CC3)no2)N1 (centres undefined),-4.42
19,Cn1cc(CN2CCc3nc4ccccc4c(=O)n3CC2)cn1,-1.93
20,Cc1cc(Nc2ccc(F)cn2)cc(C2CCCN2)n1 (centres undefined),-7.05
21,CS(=O)(=O)N[C@@H]1CN(Cc2ccc3ccccc3c2)C[C@H]1O,-2.76
22,O=C(NC[C@]1(O)CN(Cc2ncccc2F)C[C@H]1O)c1cc[nH]n1,21.3
23,O=C(NC[C@]1(O)CCN(Cc2ccccc2F)C[C@H]1O)c1c[nH]cn1,-0.237
24,Cc1cncc(CN2CC[C@@](O)(CNC(=O)c3c[nH]cn3)[C@H](O)C2)c1,-6.5
25,Cc1ocnc1C(=O)N(C)[C@@H]1CCC[C@@H](N2CCCC2)[C@@H]1O,25.2
26,Cc1nccn1[C@@H]1CC[C@@H](NC(=O)CCCn2cccn2)[C@H]1O,19.3
27,Cc1noc(C)c1-c1nc(C2CCCN(C(=O)CCN)C2)ccc1CO (centres undefined),-1.78

row,SMILES,cytotoxicity at 70.5 h [%]
1,Cc1ocnc1C(=O)N(C)[C@@H]1CC[C@@H](n2ccnc2C)[C@@H]1O,-7.34
2,Cc1noc(C)c1-c1nc(C2CCCN(C(=O)C(C)C)C2)ccc1CO (centres undefined),-2.96
3,CN(C)CC1(O)CCN(C(=O)Cc2ccc3c(c2)CCCC3)C1 (centres undefined),-7
4,FC(F)(F)c1cc(C2CCN(c3cnccn3)CC2)n2ccnc2n1,-5.4
5,CNC(=O)CNC(=O)c1ccc(-c2scnc2C)nc1,-0.926
6,Cc1cc(C(=O)N2CCCC(c3cc(=O)nc4n3CCC4)C2)on1 (centres undefined),-6.58
7,Nc1nccc(C2CCN(c3cnccn3)C2)n1 (centres undefined),21.1
8,Cc1ccccc1OC1CCN(CC(=O)Nc2cn(C)nc2C)CC1,-1.78
9,Cc1cc(C)n(CC(=O)N2CCC(c3ccn4nccc4n3)CC2)n1,26.6
10,CCCN1CCC(c2cc(CCOc3ccc(C(F)(F)F)cc3)[nH]n2)C1 (centres undefined),0.882
11,CCC(C)NC(=O)c1cc(S(=O)(=O)N2CCCC2)c(C)s1 (centres undefined),-3.53
12,Cc1cc(Nc2ccc(F)cn2)cc(C2CCN(Cc3ncc[nH]3)C2)n1 (centres undefined),-0.353
13,CC(=O)N1CCCC1c1nc(CN(C)C(=O)C(C)C)cc(N(C)C)n1 (centres undefined),-4.11
14,CO[C@@H]1CC[C@@H](NS(=O)(=O)c2cn(C)nc2C)[C@H]1O,-1.72
15,Cc1cc2ccccc2n1CCC(=O)N1CCN(C)CC1C(N)=O (centres undefined),-2.15
16,Cc1ncc(CNC(=O)CCc2ccccc2F)c(C2CCCN2C)n1 (centres undefined),-0.236
17,O=C(Cc1ccsc1)N1CCCCC1c1ccn2ccnc2n1 (centres undefined),8.15
18,O=C(Cc1ccccc1F)N1CCCCC1c1ccn2ccnc2n1 (centres undefined),-6.86
19,COc1cccc(CC(=O)NCc2cnc(C)nc2C2CCCN2C)c1 (centres undefined),-6.33
20,COc1cc(CN2CC[C@H](NC(C)=O)[C@@H](O)CC2)ccc1F,12.1
21,CC(=O)N1CCN([C@@H]2CCC[C@@H](NC(=O)c3cccnc3)[C@H]2O)CC1,-11.5
22,CC(=O)N1CCN([C@@H]2CC[C@@H](NC(=O)c3cc(C)cs3)[C@H]2O)CC1,-4.78
23,CC(=O)N1CCC(Cc2cccc(-c3c(C)noc3C)n2)C1 (centres undefined),-7.61
24,CCC(=O)N1CCC(c2cncc(Oc3cccnc3)n2)CC1,-5.07
25,CCC(=O)N1CCC1c1cc(NC2CCCC2)nc(C)n1 (centres undefined),-2.68
26,Cc1nc(CCC(=O)NCC(N)=O)cc(C2CCNCC2)n1,-6.67
27,CC1(C(=O)N2CCOCC2)CN(Cc2ncc[nH]2)CCO1 (centres undefined),11.7

row,SMILES,cytotoxicity at 70.5 h [%]
1,COCCC(=O)N1CCCC1c1nc(O)cc(-c2ccccn2)n1 (centres undefined),-5.06
2,O=C(CN1CCCC1)N1CCCC1c1nc(O)cc(-c2ccccn2)n1 (centres undefined),11.1
3,O=C(c1cccnc1)N1CCCC1c1nc(O)cc(-c2ccccn2)n1 (centres undefined),-6.66
4,Oc1nc(N2CCCC2)nc2c1CCN(Cc1cccnc1)CC2,-5.83
5,CN(Cc1ccc(F)cc1)CC1(O)CCN(C(=O)c2ccncc2)C1 (centres undefined),-5.43
6,Cc1noc(C)c1-c1cc(CC2CCN(C(=O)c3cc[nH]n3)C2)ncn1 (centres undefined),-0.894
7,CC(=O)Nc1nc(C2CCN(C(=O)c3cncs3)CC2)cs1,11.2
8,COCC(=O)N1CCC(Cc2nccnc2-c2c(C)n[nH]c2C)C1 (centres undefined),12.4
9,CN1CCC(c2cccc(Cc3ccccc3)n2)CC1,3.18
10,CN1CCCC1c1cccc(Cc2ccc(F)cc2)n1 (centres undefined),17
11,CNC(=O)CCc1cc(C)nc(C2CCCCN2)n1 (centres undefined),-4.98
12,O=C(c1ccc(F)cc1)N1CCOC(c2nc(-c3ncccn3)no2)C1 (centres undefined),-5.53
13,Nc1nc(C2CCN(C(=O)c3cnccn3)CC2)cs1,15.4
14,Cc1cccc(Nc2nccnc2C2CCCN2CC(N)=O)n1 (centres undefined),-2.88
15,NC(=O)C1(c2cnccn2)CCCN1Cc1ccncc1 (centres undefined),-0.768
16,Cc1cc(C)nc(Nc2cccc(C3CCCN(S(C)(=O)=O)C3)n2)n1 (centres undefined),46.8
17,c1cnc(Nc2cncc(C3CCCN3)n2)cn1 (centres undefined),-3.08
18,CN(C)c1ncc(-c2cccc(C(N)=O)c2)c(C2CNCCO2)n1 (centres undefined),-1.28
19,COc1ccc(-c2cnc(N(C)C)nc2C2CNCCO2)cc1 (centres undefined),-4.32
20,CN(C)c1ncc(-c2ccc(F)cc2)c(C2CNCCO2)n1 (centres undefined),-2.95
21,Cc1noc2nc(C3CCN(CC4CCCCC4)CC3)cc(C(F)F)c12,1.17
22,COc1ccc(CN(Cc2ccco2)Cc2[nH]cnc2C)c(OC)c1,-8.31
23,COc1cccc(CN(Cc2ccco2)Cc2cnc(C)n2C)c1,3.46
24,COc1ncc(CN2C[C@@H]3CC[C@@](O)(c4ccc(C)cn4)[C@@H]3C2)cn1,2.96
25,c1cc2nccc(CC3CCCN(Cc4c[nH]cn4)CC3)c2cn1 (centres undefined),-0.459
